Measured values from US20100310653A1, “USE OF AN EXTRACT MADE OF LEAVES OF GINKGO BILOBA” (DR. WILLMAR SCHWABE GMBH & CO. KG, priority 2007, published 2010).

Assay: Concentration of lead substances in blood plasma against time after 120 mg Ginkgo extract tablet
Conditions: humans, one tablet with 120 mg Ginkgo extract, means of 12 test persons, FIG. 1
Excerpt: The presented values are means of 12 test persons. The administered amount is equal to the daily maximum dose, recommended by the monograph.

CC(C)(C)[C@]1(O)CC2OC(=O)CC23C(=O)OC2OC(=O)[C@H](O)C231 (stereo partly shown) [bilobalide]
concentration in blood plasma 12 hours after intake: very little concentrations
